Data taken from patent US11542298B2, “Hydroxysteroid compounds, their intermediates, process of preparation, composition and uses thereof” (Epirium Bio Inc., priority 2014, dated 2023).
Where “and” joins values, the source holds several entries; their conditions need not be identical. Equal values may be shown once.

Test system: AMP KINASE
Test: AMP KINASE phosphorylation, cell-based fluorescent ELISA (BioAssay Systems)
Conditions: not given
Protocol: The compounds of the present invention were tested for their activity on AMP KINASE. The activity on AMP KINASE was evaluated by quantitative fluorescent immunoenzymatic assay of AMP KINASE phosphorylation status in cultured cells. The 5-AMP-activated protein kinase (AMP KINASE) is a key sensor of intracellular energy balance. AMP KINASE is activated in response to an increase in the AMP/ATP ratio which can be caused by a number of factors such as muscle contraction, starvation, or hypoxia. AMP KINASE is a heterotrimeric protein complex comprising of α—(63 kDa), β—(38 kDa) and γ—(38 kDa) subunits. For each subunit, isoforms have been identified (α1, α2, β1, β2, γ1, γ2, γ3) which theoretically allow the formation of 12 different proteins. The α-subunit contains a serine/threonine kinase domain and the regulatory subunits contain binding sites for AMP and ATP (γ-subunit) and for glycogen (β-subunit). AMP KINASE is activated by phosphorylation on Thr-172 within the catalytic domain. AMP binding results in a 2 to 5-fold increase in AMP KINASE activity compared to the basal level. Binding of AMP to the γ-subunit causes allosteric activation of the kinase and induces a conformational change in the kinase domain that protects AMP KINASE from dephosphorylation of Thr-172.
BioAssay Systems' cell-based ELISA measure phosphorylated AMP KINASE in whole cells and normalizes the signal to the total protein content. The antibody recognizes both α-subunits and, thus, can be used for cells from all tissues (human, mouse, rat). This simple and efficient assay eliminates the need for cell lysate preparation and can be used to study AMP KINASE regulation in short-term and long-term assays. In this assay, cells grown in 96-well plates are fixed and permeabilized in the wells. AMP KINASE phosphorylation (pAMPK) is measured using a fluorescent ELISA followed by total protein measurement in each well.
A few illustrative compounds of the present invention were tested at 10 nM and the AMPkinase activation of the compounds is listed at Table 2: […]

**Q.** With `C[C@]12CCC(=O)NC1=CCC1C2[C@@H](O)C[C@]2(C)C(=O)CCC12` (stereo partly drawn) [Compound 1005, (4aR,5S,6aS)5-hydroxy-4a,6a-dimethyl-4,4a,4b,5,6,6a,9,9a,9b,- 10-decahydro-1H-indeno[5,4-f]-quinoline-2,7(3H,8H)-dione] as the molecule, how does the “AMPKinase Activation at 10 nM” value read?
**A.** 1.85

**Q.** Which “AMPKinase Activation at 10 nM” value does the source give for `CC(=O)C1CCC2C3CC=C4NC(=O)CC[C@]4(C)C3[C@@](C)(O)C[C@]12C` (stereo partly drawn) [Compound 1008, (4aR,5S,6aS)-7-acetyl-4,4a,4b,5,- 6,6a,7,8,9,9a,9b,10-dodecahydro-5-hydroxy-4a,5,6a-trimethyl-1H-indeno[5,4-f]quinolin-2(3H)-one] here?
**A.** 1.97

**Q.** With `C[C@]12C=CC(=O)C=C1CCC1C2[C@@H](O)C[C@@]2(C)C1CC[C@@H]2C(=O)O` (stereo partly drawn) [Compound 1013, (10R,11S,13S,17S)-11-hydroxy-10,13-dimethyl-3-oxo-6,7,8,9,- 10,11,12,13,14,15,16,17-dodeca-hydro-3H-cyclopenta[a]-phenan-threne-17-carboxylic acid] as the molecule, how does the “AMPKinase Activation at 10 nM” value read?
**A.** 1.79

**Q.** How did the “AMPKinase Activation at 10 nM” value turn out when `CN(C)C(=O)[C@H]1CCC2C3CCC4=CC(=O)C=C[C@]4(C)C3[C@@H](O)C[C@@]21C` (stereo partly drawn) [Compound 1014, (10R,11S,13S,17S)-11-hydroxy-N,N,10,13-tetramethyl-3-oxo-6,7,8,9,10,11,12,13,14,15,16,17-dodecahydro-3H-cyclopenta[a]-phenanthrene-17-carboxamide] was run?
**A.** 1.80

**Q.** How did the “AMPKinase Activation at 10 nM” value turn out when `CC(=O)[C@H]1CCC2C3CCC4=CC(=O)C=C[C@]4(C)C3[C@@H](O)C[C@@]21C` (stereo partly drawn) [Compound 1015, (10R,11S,13S,17S)-17-acetyl-11-hydroxy-10,13-dimethyl-6,7,8,9,- 10,11,12,13,14,13,16,17-dodeca-hydro-3H-cyclopenta[a]-phenan-thren-3-one] was run?
**A.** 2.23

**Q.** For `CC(O)[C@H]1CCC2C3CCC4=CC(=O)C=C[C@]4(C)C3[C@@H](O)C[C@@]21C` (stereo partly drawn) [Compound 1016, (10R,11S,13S,17S)-11-hydroxy-17-((R)-1-hydroxyethyl)-10,13-dimethyl-6,7,8,9,10,11,12,13,- 14,15,16,17-dodecahydro-3H-cyclopenta[a]phenanthren-3-one], which “AMPKinase Activation at 10 nM” value is on record?
**A.** 2.38

**Q.** `C[C@]12CCC(=O)NC1=CCC1C2[C@@H](O)C[C@@]2(C)C1CCC21OCCO1` (stereo partly drawn) [Compound 1017, (4a′R,5′S,6a′S)-5′-hydroxy-4a′,6a′-dimethyl-3′,4′,4a′,4b′,5′,6′,6a′,8′,- 9′,9a′,9b′,10′-dodecahydrospiro-[[1,3]dioxolane-2,7′-indeno[5,4-f]-quinolin]-2′(1′H)-one] was tested. Which “AMPKinase Activation at 10 nM” value did it give?
**A.** 2.08

**Q.** With `C[C@]12CCC(=O)NC1=CCC1C2[C@](C)(O)C[C@]2(C)C(=O)CCC12` (stereo partly drawn) [Compound 1018, (4aR,5R,6aS)-5-hydroxy-4a,5,6a-trimethyl-4,4a,4b,5,6,6a,9,9a,9b,- 10-decahydro-1H-indeno[5,4-f]-quinoline-2,7(3H,8H)-dione] as the molecule, how does the “AMPKinase Activation at 10 nM” value read?
**A.** 2.19

**Q.** How did the “AMPKinase Activation at 10 nM” value turn out when `C[C@]12C[C@H](O)C3C(CC=C4NC(=O)CC[C@@]43C)C1CCC2O` (stereo partly drawn) [Compound 1019, (4aR,5S,6aS)-5,7-dihydroxy-4a,6a-dimethyl-4,4a,4b,5,6,6a,- 7,8,9,9a,9b,10-dodecahydro-1H-indeno[5,4-f]quinolin-2(3H)-one] was run?
**A.** 2.23

**Q.** How did the “AMPKinase Activation at 10 nM” value turn out when `C[C@]12CCC(=O)NC1=CCC1C2[C@@H](O)C[C@]2(C)/C(=N\O)CCC12` (stereo partly drawn) [Compound 1021, (4aR,5S,6aS,Z)-5-hydroxy-7-(hydroxyimino)-4a,6a-dimethyl-4,4a,4b,5,6,6a,7,8,9,9a,9b,10-dodecahydro-1H-indeno[5,4-f]-quinolin-2(3H)-one] was run?
**A.** 2.23

**Q.** How did the “AMPKinase Activation at 10 nM” value turn out when `CN1C(=O)CC[C@@]2(C)C1=CCC1C3CCC(O)[C@@]3(C)C[C@H](O)C12` (stereo partly drawn) [Compound 1022, (4aR,5S,6aS)-5,7-dihydroxy-1,4a,6a-trimethyl-4,4a,4b,5,6,6a,- 7,8,9,9a,9b,10-dodecahydro-1H-indeno[5,4-f]quinolin-2(3H)-one] was run?
**A.** 2.87

**Q.** For `C[C@]12CCC(=O)NC1CCC1C3CCC(O)[C@@]3(C)C[C@H](O)C12` (stereo partly drawn) [Compound 1023, (4aR,5S,6aS)-5,7-dihydroxy-4a,6a-dimethyltetradecahydro-1H-indeno[5,4-f]quinolin-2(3H)-one], which “AMPKinase Activation at 10 nM” value is on record?
**A.** 2.46

**Q.** For `CC1([C@H]2CCC3C4CC=C5NC(=O)CC[C@]5(C)C4[C@@H](O)C[C@@]32C)OCCO1` (stereo partly drawn) [Compound 1025, (4aR,5S,6aS,7S)-5-hydroxy-4a,6a-dimethyl-7-(2-methyl-1,3-dioxolan-2-yl)-4,4a,4b,5,6,6a,- 7,8,9,9a,9b,10-dodecahydro-1H-indeno[5,4-f]quinolin-2(3H)-one], which “AMPKinase Activation at 10 nM” value is on record?
**A.** 2.11

**Q.** For `CC1([C@H]2CCC3C4CC=C5NC(=O)CC[C@]5(C)C4[C@@](C)(O)C[C@@]32C)OCCO1` (stereo partly drawn) [Compound 1026, (4aR,5S,6aS,7S)-5-hydxoxy-4a,5,6a-trimethyl-7-(2-methyl-1,3-dioxolan-2-yl)-4,4a,4b,5,6,6a,- 7,8,9,9a,9b,10-dodecahydro-1H-indeno[5,4-f]quinolin-2(3H)-one], which “AMPKinase Activation at 10 nM” value is on record?
**A.** 1.69 and 2.17

**Q.** `C[C@]12CCC(=O)NC1=CCC1C2[C@@H](O)C[C@@]2(C)C1CC[C@@H]2C(=O)O` (stereo partly drawn) [Compound 1027, (4aR,5S,6aS,7S)-5-hydroxy-4a,6a-dimethyl-2-oxo-2,3,4,4a,4b,5,6,- 6a,7,8,9,9a,9b,10-tetradecahydro-1H-indeno[5,4-f]quinoline-7-carboxylic acid] was tested. Which “AMPKinase Activation at 10 nM” value did it give?
**A.** 1.85

**Q.** How did the “AMPKinase Activation at 10 nM” value turn out when `COc1ccc2c(c1)CCC1C2[C@@H](O)C[C@]2(C)C(C(C)O)CCC12` (stereo partly drawn) [Compound 1030, (11S,13S)-17-(1-hydroxyethyl)-3-methoxy-13-methyl-7,8,9,11,12,- 13,14,15,16,17-decahydro-6H-cyclopenta[a]phenanthren-11-ol] was run?
**A.** 1.51

**Q.** `Cc1ccc(O)c2c1C1C(CC2)C2CC[C@H](C(=O)O)[C@@]2(C)C[C@@H]1O` (stereo partly drawn) [Compound 1035, (11S,13S,17S)-4,11-dihydroxy-1,13-diinethyl-7,8,9,11,12,13,- 14,15,16,17-decahydro-6H-cyclopenta[a]phenanthrene-17-carboxylic acid] was tested. Which “AMPKinase Activation at 10 nM” value did it give?
**A.** 1.76

**Q.** With `CC(C)(O)[C@H]1CCC2C3CC=C4NC(=O)CC[C@]4(C)C3[C@@H](O)C[C@@]21C` (stereo partly drawn) [Compound 1038, (4aR,5S,6aS,7S)-5-hydroxy-7-(2-hydroxypropan-2-yl)-4a,6a-dimethyl-4,4a,4b,5,6,6a,7,8,9,- 9a,9b,10-dodecahydro-1H-indeno-[5,4-f]quinolin-2(3H)-one] as the molecule, how does the “AMPKinase Activation at 10 nM” value read?
**A.** 1.70

Test system: AMP KINASE
Test: AMP KINASE activation, cell based ELISA in Hepatoma (Hep 2) liver cells
Conditions: 0.1 nM, 30 m, over baseline of 100 (DMSO control)
Protocol: AMP KINASE activation potential of the compounds was evaluated using cell based ELISA·Hepatoma (Hep 2) liver cells were maintained in a T 75 culture flask-containing 25 mM DMEM+10% fetal calf serum. The cells were maintained in a T 75 culture flask-containing medium (DMEM+10% fetal calf serum). On reaching a confluence of 70 to 80%, the cells were seeded in a 96 well plate at a density of 40,000 cells per well in 25 mM DMEM+10% FCS medium. The plates were then incubated at 37° C. with 5% CO2 for 24 hours. Various concentrations of drugs were prepared in DMSO and diluted to required concentration with the medium and incubated at 37° C. with 5% CO2 for 30 min and 1 h for Epicatechin analogs and 11-BHP analogs respectively. Metformin was used as positive control·Cells were fixed with 4% formaldehyde for 30 minutes at room temperature and washed three times with PBS containing 0.1% Triton X-100. Endogenous peroxidase was quenched with 1% H2O2 in PBS-T (0.1% Tween 20) for 30 minutes and washed three times in PBS-T. Cells were blocked with 1% BSA in PBS-T for 1 hour. The cells were incubated with 1:1000 dilution primary antibody (Phospho-AMPKα ([…]) Rabbit mAb, Cell Signaling in PBS-T containing 5% BSA at 4° C. overnight. The cells were then washed three times with PBS-T for 5 minutes and incubated with 1:1000 dilution secondary antibody (Anti-rabbit IgG, HRP-linked Antibody, Cell Signaling) in PBS-T with 1% BSA for 1 hour at RT·Cells were washed three times with PBS-T for 5 minutes The cells were incubated with 100 μl TMB substrate solution for 30 minutes and the reaction was stopped with 100 μl of 2N H2SO4. Then the plate was read at 450 nm using ELISA plate reader and absorbance recorded. % activity was calculated using DMSO control as 100%.

**Q.** Which “% pAMPK” value does the source give for `CC(=O)C1CC[C@H]2[C@@H]3CCC4=CC(=O)CC[C@]4(C)[C@H]3[C@@H](O)C[C@]12C` (stereo partly drawn) [Compound 1040, (8S,9S,10R,11S,13S,14S)-17-acetyl-11-hydroxy-10,13-dimethyl-6,7,8,9,10,11,12,13,- 14,15,16,17-dodecahydro-1H-cyclopenta[a]phenanthren-3(2H)-one] here?
**A.** 118%

Same assay, conditions: 2 mM, 30 m, over baseline of 100 (DMSO control)

**Q.** For `CN(C)C(=N)N=C(N)N` [Metformin, reference compound], which “% pAMPK” value is on record?
**A.** 121%
